These results are taken from US20250236614A1, “BICYCLIC TETRAHYDROAZEPINE DERIVATIVES” (Hoffmann-La Roche Inc., priority 2022, published 2025).

Assay [1] has as its target T1, hDGKzeta(1-928)-N-His (DGKZ) (Homo sapiens, UniProt Q13574).
T1 construct: hDGKzeta(1-928)-N-His; His (N)
Nature of the assay: In vitro DGK inhibition assay (ADP-Glo, in house), DGK zeta. Type of assay: biochemical. The following applies: isomer A; 2 nM DGK ζ, 50 μM ATP, 125 μM DLG in liposomes, 1 hour reaction; read-out: DGKzeta ADP Glo assay IC50. The procedure:
(§1) DGK α and ζ kinase use ATP to phosphorylate the substrate 1,2-dilauroyl-sn-glycerol (DLG, incorporated in the liposomes). ATP is converted to ADP as a result of this enzymatic reaction.
(§2) After the kinase reaction, an ATP-depletion reagent is added to terminate the kinase reaction and deplete any remaining ATP, leaving only ADP. Second, a detection reagent is added to simultaneously convert ADP to ATP and allow the newly synthesized ATP to be converted to light using a coupled luciferase/luciferin reaction.
(§3) Full length DGKA and Z were expressed in Sf21 insect cells by infecting the cells with the baculovirus stock at MOI of 2. Purification of both enzymes was performed as previously described by Takahashi et al., PeerJ, 2018 (Takahashi, D.; Sakane, F. Expression and purification of human diacylglycerolkinase alpha from baculovirus-infected insect cells for structural studies. PeerJ2018, 6, No. e5449).
(§4) A concentrated liposome solution was prepared in assay buffer without DTT and BSA: 2 mM of DLG in 21 mM of total liposome (2 mM DLG/8 mM PS/11 mM PC). The reaction mixtures contain the assay buffer with a final DLG concentration of 125 μM ATP concentrations of 25 μM (for DGKA assay) or 50 μM (for DGKZ assay). The reactions were started by addition of DGK α and ζ kinases at 4 nM and 2 nM final concentrations, respectively. After 1 hour reaction, the amount of ADP formed was detected with the ADP-Glo kinase assay (Promega) according to the manufacturer instructions. Compounds were added in 11I-points dose response, starting at 10 mM, 1:3 dilutions, with a final DMSO concentration of […]. The multidrop combi was used as a liquid handler and luminescence was read with 0.5 s by the envision reader (PE).
On the technique in general: ADP-Glo first removes unused ATP, then detects ADP through luciferase.

In the next assay the test system is primary human T-cells. Nature of the assay: IL2 secretion measurements in CD3-stimulated T-cells. The format is cell-based. Conditions: isomer A; for EC50: CD3 antibody-stimulated T-cells, IL2 in supernatant after 24 hours, read-out: Tcell IL2 CD3 EC50; for Emax: read-out: Emax IL2 (% activation). The procedure:
As readouts for T-cell activation, IL2 secretion after 24 hours and proliferation after 5 days was measured. Increases in IL2 secretion and proliferation upon compound treatment were assessed as the % of the maximum of reference compound A1. WO 2016/139181 discloses reference compound A1 as example 70. As a counter screen and to make sure that no unwanted TCR-independent activation was triggered, PBS conditions were run for all compounds.
Expanded primary human T-cells were thawed and cultured in RPMI 1640 (Gibco, #61870-010)+5% human serum (HS, Sigma, #H3667)+1 mM Sodium Pyruvate (Gibco, #11360-039)+50 μM 2-mercaptoethanol (Gibco, #31350-010) and lx Pen-Strep (Life Technologies, #15140122) medium at density of 2 Mio/ml for 3 hours in 5% CO2, 37° C. and 95% humidity. For coating of plates, […] or PBS++ with CD3 antibody (concentration depending on donor and determined by CD3 titrations) was added 100 μl/well to Poly-D Lysine coated 96-well plates. Plates were sealed and incubated at room temperature for 3 hours on a table-top rocking platform. After incubation, plates were washed once with PBS−− and filled with 40 μl/well culture medium only. Compounds were then added (see next section) to medium only plates. After 3 hours of culturing the T-cells, cells were filtered through a cell strainer (Miltenyi Biotech, #130-041-407), counted again and concentration was adjusted to 1.25 Mio/ml.
Cells were then seeded 80 μl/well to the 40 μl/well including dispensed compounds according to plate layout. By adding cells, compounds were further diluted 1:3, and resulting in 100k cells/120 μl/well. After 24 hours 40 μl of supernatant was collected carefully from the top while not disturbing the cells and transferred into a round bottom 96 well plate. Collected and frozen supernatant was used for detection of IL2 using the IL-2 Human ProQuantum Immunoassay Kit (Invitrogen) or using the Human IL-2 ELISA Kit (Thermo Fisher).
Compounds were added in a 5 or 6 pt dose response with the Tecan D300e Digital Dispenser, all conditions 3 times more concentrated than the end-concentration, since cells are added afterwards (80 μl cells to 40 μl prepared medium with treatment). The DR was starting at 20 μM or 10 μM final top concentration and a dilution factor of 3.333. The positive control was the reference compound A1 that was added in a dose response as well, additionally to 3 wells of only 20 μM representing the positive stimulator control. All wells were normalized with DMSO to a final concentration of 0.6% (0.2% end-concentration).
The immunoassay is done following the manufacturer's manual (Invitrogen, #A35603).
Additional information: For the immunoassay, MicroAmp™ EnduraPlate™ Optical 384-Well plates are used. Frozen supernatant is thawed and centrifuged for 5 minutes at 1000×g, both steps at 4° C. After centrifugation, required sample amount is taken from the top, and in a separate LightCycler V-bottom plate (working plate) diluted with assay dilution buffer, dilution factor depending on the PBS or CD3 condition but at least 1:3. IL-2 standard and blanks are prepared in the same V-bottom plate, standard with a range of […] (extended version). After preparation, […] of sample dilutions or standard/blanks are transferred to the optical 384-well plate (assay plate) and the 10 μl reaction protocol is being followed. For measurement, the QuantStudio 12K Flex system is used. Raw data is extracted and IL-2 concentrations are calculated with the Thermo Fisher online app (apps.thermofisher.com/apps/proquantum).
ELISA is done following the manufacturer's manual (Thermo Fisher Scientific, #88-7025-88).
Additional information: For the ELISA Nunc MaxiSorp 96 well plates are used. Frozen supernatant is thawed and centrifuged for 5 minutes at 1000×g, both steps at 4° C. After that, required sample amount is taken from the top, and in a separate V-bottom plate diluted with ELISA diluent, dilution factor depending on the PBS or CD3 condition. […]

For assay [2], the target named is T2, hDGKalpha(1-735)-N-His (DGKA) (Homo sapiens, UniProt P23743).
T2 construct: hDGKalpha(1-735)-N-His; His (N)
Briefly: In vitro DGK inhibition assay (ADP-Glo, in house), DGK alpha. The format is biochemical. Conditions: isomer A; 4 nM DGK α, 25 μM ATP, 125 μM DLG in liposomes, 1 hour reaction; read-out: DGKalpha ADP Glo assay IC50. The procedure: as §1, §2, §3, §4

Setting [3] is: Homo sapiens, T-cell, CD3 condition, 24 hours, 20 μM reference compound A1 = 100%, DMSO neutral control.

Like-named read-outs stand apart in the source and are kept apart here.

T2 sequence (P23743 whole entry): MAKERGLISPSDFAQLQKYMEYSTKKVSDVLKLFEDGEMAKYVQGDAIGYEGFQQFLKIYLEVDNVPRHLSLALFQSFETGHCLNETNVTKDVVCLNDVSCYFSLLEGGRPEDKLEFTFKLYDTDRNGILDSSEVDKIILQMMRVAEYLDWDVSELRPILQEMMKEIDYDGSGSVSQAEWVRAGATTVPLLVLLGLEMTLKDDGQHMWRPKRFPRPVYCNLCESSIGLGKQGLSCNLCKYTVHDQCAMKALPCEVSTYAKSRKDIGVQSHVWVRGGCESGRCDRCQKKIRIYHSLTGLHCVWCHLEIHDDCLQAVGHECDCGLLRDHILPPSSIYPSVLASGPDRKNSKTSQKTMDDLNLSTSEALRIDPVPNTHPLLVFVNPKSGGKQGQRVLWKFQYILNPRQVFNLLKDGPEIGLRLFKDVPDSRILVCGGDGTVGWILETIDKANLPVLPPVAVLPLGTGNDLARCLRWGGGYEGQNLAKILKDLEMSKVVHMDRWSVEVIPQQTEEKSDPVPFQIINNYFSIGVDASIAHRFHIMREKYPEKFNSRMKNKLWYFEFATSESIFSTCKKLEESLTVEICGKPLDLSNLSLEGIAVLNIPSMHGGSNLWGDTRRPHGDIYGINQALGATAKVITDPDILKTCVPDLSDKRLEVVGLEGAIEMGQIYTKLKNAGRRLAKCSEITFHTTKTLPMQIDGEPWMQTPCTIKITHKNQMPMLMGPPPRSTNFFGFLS
T1 sequence (Q13574 whole entry): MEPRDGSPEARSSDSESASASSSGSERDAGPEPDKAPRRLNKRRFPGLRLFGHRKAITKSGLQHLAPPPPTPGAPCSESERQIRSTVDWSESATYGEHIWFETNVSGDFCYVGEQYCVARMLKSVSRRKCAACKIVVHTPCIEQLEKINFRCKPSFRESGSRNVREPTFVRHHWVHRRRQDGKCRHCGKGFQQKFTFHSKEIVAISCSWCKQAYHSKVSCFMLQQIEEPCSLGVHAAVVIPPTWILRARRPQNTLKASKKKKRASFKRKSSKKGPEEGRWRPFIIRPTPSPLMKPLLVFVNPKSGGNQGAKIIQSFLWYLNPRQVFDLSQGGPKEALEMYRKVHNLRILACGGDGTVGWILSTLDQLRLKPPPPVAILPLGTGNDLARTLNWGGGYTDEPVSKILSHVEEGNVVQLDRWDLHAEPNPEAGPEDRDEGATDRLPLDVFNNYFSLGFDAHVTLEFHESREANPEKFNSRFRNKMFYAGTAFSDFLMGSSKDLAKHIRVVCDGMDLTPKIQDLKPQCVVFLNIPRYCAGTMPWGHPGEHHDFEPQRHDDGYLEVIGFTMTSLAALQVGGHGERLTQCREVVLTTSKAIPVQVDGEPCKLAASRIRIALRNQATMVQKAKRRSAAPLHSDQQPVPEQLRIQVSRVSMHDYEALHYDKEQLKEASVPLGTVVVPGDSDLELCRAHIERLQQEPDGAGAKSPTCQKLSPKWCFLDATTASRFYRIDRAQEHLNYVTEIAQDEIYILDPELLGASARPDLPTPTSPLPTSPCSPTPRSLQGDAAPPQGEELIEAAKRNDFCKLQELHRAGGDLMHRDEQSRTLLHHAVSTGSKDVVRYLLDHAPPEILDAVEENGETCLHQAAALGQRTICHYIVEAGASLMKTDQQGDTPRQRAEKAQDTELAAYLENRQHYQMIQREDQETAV

As for “2-methyl-2-[5-[(3S)-3-amino-5,5,7-trifluoro-2-oxo-1-[[4-(trifluoromethoxy)phenyl]methyl]-3,4-dihydro-1-benzazepin-8-yl]-1,3,4-oxadiazol-2-yl]propanenitrile and 2-methyl-2-[5-[(3R)-3-amino-5,5,7-trifluoro-2-oxo-1-[[4-(trifluoromethoxy)phenyl]methyl]-3,4-dihydro-1-benzazepin-8-yl]-1,3,4-oxadiazol-2-yl]propanenitrile [Example 2]”, the IC50 (in general, the midpoint of a concentration-inhibition curve) in assay [1] worked out at 1810 nM; in assay [2], 1400 nM. Also, the EC50 – broadly, the concentration giving half of the maximal effect – in the assay on primary human T-cells came to 827 nM. The “Emax IL2 (% activation)” value with primary human T-cells (CD3 condition, 24 hours, 20 μM reference compound A1 = 100%, DMSO neutral control) came to 256 % activation.

For `CC(C)(c1nnc(-c2cc3c(cc2F)C(F)(F)CC(N)C(=O)N3Cc2ccc(Oc3ccccc3)cc2)o1)S(C)(=O)=O` (racemic) [Example 5, (3S)-3-amino-5,5,7-trifluoro-8-[5-(1-methyl-1-methylsulfonyl-ethyl)-1,3,4-oxadiazol-2-yl]-1-[(4-phenoxyphenyl)methyl]-3,4-dihydro-1-benzazepin-2-one and (3R)-3-amino-5,5,7-trifluoro-8-[5-(1-methyl-1-methylsulfonyl-ethyl)-1,3,4-oxadiazol-2-yl]-1-[(4-phenoxyphenyl)methyl]-3,4-dihydro-1-benzazepin-2-one], the IC50 was 2400 nM in assay [1] and 16900 nM in assay [2]. Moreover, the concentration giving a half-maximal response (EC50) in the assay with primary human T-cells (Homo sapiens, T-cell) came out at 2330 nM. In addition, the Emax (as a rule, the greatest response seen or fitted, relative to the assay's reference) with primary human T-cells (setting [3]) worked out at 165%.

As for `CC(C)(C#N)c1nnc(-c2cc3c(cc2F)C(F)(F)CC(N)C(=O)N3Cc2ccc(-n3cc(C(F)(F)F)cn3)cc2)o1` (racemic) [Example 33, 2-[5-[(3S)-3-amino-5,5,7-trifluoro-2-oxo-1-[[4-[4-(trifluoromethyl)pyrazol-1-yl]phenyl]methyl]-3,4-dihydro-1-benzazepin-8-yl]-1,3,4-oxadiazol-2-yl]-2-methyl-propanenitrile and 2-[5-[(3R)-3-amino-5,5,7-trifluoro-2-oxo-1-[[4-[4-(trifluoromethyl)pyrazol-1-yl]phenyl]methyl]-3,4-dihydro-1-benzazepin-8-yl]-1,3,4-oxadiazol-2-yl]-2-methyl-propanenitrile], the figures for the IC50 in assay [1] and in assay [2] were 1680 nM and 2370 nM, respectively. In the assay on primary human T-cells (Homo sapiens, T-cell), the EC50 is 237 nM. In addition, in the assay on primary human T-cells (setting [3]), the Emax amounted to 62%.

For the molecule `COC(F)(c1nnc(-c2cc3c(cc2F)C(F)(F)C[C@H](N)C(=O)N3Cc2ccc(OC(F)(F)F)cc2)o1)C(F)(F)F` (single isomer, unassigned) [Example 4], the IC50 in assay [1] turned out to be 8930 nM; in assay [2] it was 4370 nM. In addition, the EC50 in the assay on primary human T-cells (Homo sapiens, T-cell) amounted to 821 nM. In addition, in the assay with primary human T-cells (setting [3]), the Emax is 91%.

Turning to `CC(C)(C)c1nnc(-c2cc3c(cc2F)C(F)(F)C[C@@H](N)C(=O)N3Cc2ccc(OC3CCCC3)cc2)o1` (single isomer, unassigned) [Example 7], the IC50 came to 1730 nM in assay [1] and 9640 nM in assay [2]. The EC50 in the assay with primary human T-cells (Homo sapiens, T-cell) was determined as 280 nM. Besides, the Emax in the assay on primary human T-cells (setting [3]) came out at 94%.

With `CC(C)(c1nnc(-c2cc3c(cc2F)C(F)(F)C[C@@H](N)C(=O)N3Cc2ccc(-c3ccc(C(F)(F)F)cn3)cc2)o1)S(C)(=O)=O` (single isomer, unassigned) [Example 8], the IC50 was 16100 nM in assay [1] and 5440 nM in assay [2]. Besides, the EC50 in the assay with primary human T-cells (Homo sapiens, T-cell) was 373 nM. For the same molecule, in the assay on primary human T-cells (setting [3]), the Emax came to 69%.

Turning to `COc1ccc(-c2ccc(CN3C(=O)[C@H](N)CC(F)(F)c4cc(F)c(-c5nnc(C(C)(C)C#N)o5)cc43)cc2)cc1` (single isomer, unassigned) [Example 9], the results for the IC50 in assay [1] and in assay [2] were 2360 nM and 9920 nM, respectively. In addition, in the assay with primary human T-cells (Homo sapiens, T-cell), the EC50 turned out to be 370 nM. The Emax with primary human T-cells (setting [3]) is 133%.

Regarding `COc1ccc(-c2ccc(CN3C(=O)[C@H](N)CC(F)(F)c4cc(F)c(-c5nnc(C(C)(C)S(C)(=O)=O)o5)cc43)cc2)cc1` (single isomer, unassigned) [Example 10], the IC50 in assay [1] amounted to 11500 nM; in assay [2], 16200 nM. The EC50 in the assay with primary human T-cells (Homo sapiens, T-cell) was determined as 378 nM. In addition, in the assay with primary human T-cells (setting [3]), the Emax was determined as 57%.

Regarding `CC(C)(C#N)c1nnc(-c2cc3c(cc2F)C(F)(F)C[C@@H](N)C(=O)N3Cc2ccc(-c3ccc(C(F)(F)F)cn3)cc2)o1` (single isomer, unassigned) [Example 12], the results for the IC50 in assay [1] and in assay [2] were 2900 nM and 24600 nM, respectively. Also, the EC50 with primary human T-cells (Homo sapiens, T-cell) worked out at 367 nM. In addition, the Emax in the assay on primary human T-cells (setting [3]) came to 67%.

Regarding `CCN1CC(c2nnc(-c3cc4c(cc3F)C(F)(F)C[C@@H](N)C(=O)N4Cc3ccc(OC(F)(F)F)cc3)o2)CC(F)(F)C1` (single isomer, unassigned) [Example 13], the IC50 in assay [1] came to 2260 nM; in assay [2], 9250 nM. Also, the EC50 with primary human T-cells (Homo sapiens, T-cell) is > 10000 nM. In addition, the Emax in the assay with primary human T-cells (setting [3]) was 58%.

`N[C@@H]1CC(F)(F)c2cc(F)c(-c3nnc(N4CCCC4)o3)cc2N(Cc2ccc(-c3noc(C(F)(F)F)n3)cc2)C1=O` (single isomer, unassigned) [Example 14]: the results for the IC50 in assay [1] and in assay [2] were 17900 nM and > 62500 nM, respectively. In the assay with primary human T-cells (Homo sapiens, T-cell), the EC50 was 982 nM. The Emax in the assay with primary human T-cells (setting [3]) is 239%.

For `N[C@@H]1CC(F)(F)c2cc(F)c(-c3nnc(N4CCC(F)(F)CC4)o3)cc2N(Cc2ccc(-c3noc(C(F)(F)F)n3)cc2)C1=O` (single isomer, unassigned) [Example 15], the IC50 was 1810 nM in assay [1] and 39600 nM in assay [2]. The EC50 with primary human T-cells (Homo sapiens, T-cell) is 1290 nM. Also, the Emax in the assay on primary human T-cells (setting [3]) turned out to be 152%.
